Results on one molecule are retold here after article PMC10439952, “JT002, a small molecule inhibitor of the NLRP3 inflammasome for the treatment of autoinflammatory disorders” (Scientific Reports, 2023).

The term pIC50 denotes the IC50 on a negative log10 scale, so that one unit is a factor of ten.

The target of this assay is T1, NLRP3 inflammasome assembly (ASC speck) (Mus musculus, UniProt Q8R4B8).
T1 construct: host or cells: mouse PBMCs; mouse bone-marrow derived macrophages; mouse whole blood (C57BL/6 in the ex vivo study)
T1 sequence (Q8R4B8 whole entry): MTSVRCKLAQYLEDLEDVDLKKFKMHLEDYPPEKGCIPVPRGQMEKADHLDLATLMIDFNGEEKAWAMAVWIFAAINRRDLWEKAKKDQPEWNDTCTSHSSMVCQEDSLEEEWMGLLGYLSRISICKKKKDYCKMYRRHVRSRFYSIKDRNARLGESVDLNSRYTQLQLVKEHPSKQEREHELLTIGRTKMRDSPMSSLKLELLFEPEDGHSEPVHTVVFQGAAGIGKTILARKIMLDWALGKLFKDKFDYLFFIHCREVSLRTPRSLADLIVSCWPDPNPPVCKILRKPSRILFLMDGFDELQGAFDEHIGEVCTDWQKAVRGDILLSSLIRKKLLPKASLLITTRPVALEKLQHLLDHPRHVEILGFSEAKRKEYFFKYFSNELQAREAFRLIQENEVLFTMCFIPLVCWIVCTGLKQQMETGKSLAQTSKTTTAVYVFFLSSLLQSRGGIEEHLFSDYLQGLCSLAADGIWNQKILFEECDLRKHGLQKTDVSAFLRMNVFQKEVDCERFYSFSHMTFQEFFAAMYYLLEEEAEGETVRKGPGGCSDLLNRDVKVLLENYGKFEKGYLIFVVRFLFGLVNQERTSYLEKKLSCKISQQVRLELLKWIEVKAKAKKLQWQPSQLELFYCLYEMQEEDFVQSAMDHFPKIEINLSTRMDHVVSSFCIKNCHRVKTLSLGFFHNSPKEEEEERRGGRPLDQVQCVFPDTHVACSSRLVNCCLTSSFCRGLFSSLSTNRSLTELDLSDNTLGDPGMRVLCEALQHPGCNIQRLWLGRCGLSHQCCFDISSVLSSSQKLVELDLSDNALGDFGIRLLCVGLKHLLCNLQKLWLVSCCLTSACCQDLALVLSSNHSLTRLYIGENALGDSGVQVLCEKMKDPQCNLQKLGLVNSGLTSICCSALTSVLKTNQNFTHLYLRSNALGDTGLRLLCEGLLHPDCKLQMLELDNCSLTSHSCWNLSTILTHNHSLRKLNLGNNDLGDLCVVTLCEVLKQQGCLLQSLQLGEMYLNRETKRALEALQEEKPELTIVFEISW
As to the kind of experiment: Inhibition of ASC speck formation by immunofluorescence in LPS + nigericin treated mouse BMDMs. Type of assay: cell-based. As to the method:
Mouse BMDMs (2.5 × 10^4 cells/well) were plated in Collagen-IV coated 96-well plates. On the day of the assay, cells were washed with serum-free media then primed with 100 ng/mL LPS for 3 h in DMEM/F12 (1:1) containing L-glutamine. JT002 or DMSO was added to each well and incubated at 37 °C for 30 min prior to stimulation with 10 μM nigericin for 1.5 h. Cells were briefly centrifuged, rinsed with PBS, and fixed with 4% formaldehyde in PBS overnight at 4 °C. Cells were blocked and permeabilized in PBS with 10% goat serum, 1% FBS, 0.5% Triton X-100 for 30 min at 37 °C and incubated with ASC antibody (Millipore-Sigma, Cat #04-147) overnight at 4 °C. Cells were incubated with anti-mouse IgG Alexa Fluor-488 for 1 h at 37 °C. Nuclei were stained with Hoechst 33342 in PBS for 5 min and imaged using a CellInsight CX7 High-Content Screening Platform (ThermoFisher) at Phenovista Biosciences (San Diego, CA, USA).

pIC50: −log10 of the molar value.

Consider `CO[C@@H]1COc2c(S(=O)(=O)NC(=O)Nc3c4c(cc5c3CCC5)CCC4)cnn2C1` [JT002], for which, for the setting “Mouse BMDM, read-out: Geo Av IC50, ASC specks”, the pIC50 was 8.52. Where the note is “mBMDMs, 2 µM JT002 prior to NLRP3 activation”, the ASC speck formation entry is “completely prevented ASC speck formation”.
